# Source: PMC5028038, “Demethoxycurcumin Is A Potent Inhibitor of P-Type ATPases from Diverse Kingdoms of Life” (PLoS ONE, 2016)
# Like-named read-outs stand apart in the source and are kept apart here.
# Columns and labels:
# [1] = target: T1, A. thaliana PM H+-ATPase isoform AHA2 (Arabidopsis thaliana, UniProt P19456); test: ATP hydrolysis (Baginski) assay on AHA2 in yeast plasma membranes; assay type: biochemical; conditions: for effect on AHA2 ATPase activity: 50 μM compound; for slope factor H of inhibition curve, AHA2: variable slope fit
# T1 construct: made in house; host or cells: S. cerevisiae strain RS-72, plasma membranes isolated
# T1 sequence (P19456 1-948): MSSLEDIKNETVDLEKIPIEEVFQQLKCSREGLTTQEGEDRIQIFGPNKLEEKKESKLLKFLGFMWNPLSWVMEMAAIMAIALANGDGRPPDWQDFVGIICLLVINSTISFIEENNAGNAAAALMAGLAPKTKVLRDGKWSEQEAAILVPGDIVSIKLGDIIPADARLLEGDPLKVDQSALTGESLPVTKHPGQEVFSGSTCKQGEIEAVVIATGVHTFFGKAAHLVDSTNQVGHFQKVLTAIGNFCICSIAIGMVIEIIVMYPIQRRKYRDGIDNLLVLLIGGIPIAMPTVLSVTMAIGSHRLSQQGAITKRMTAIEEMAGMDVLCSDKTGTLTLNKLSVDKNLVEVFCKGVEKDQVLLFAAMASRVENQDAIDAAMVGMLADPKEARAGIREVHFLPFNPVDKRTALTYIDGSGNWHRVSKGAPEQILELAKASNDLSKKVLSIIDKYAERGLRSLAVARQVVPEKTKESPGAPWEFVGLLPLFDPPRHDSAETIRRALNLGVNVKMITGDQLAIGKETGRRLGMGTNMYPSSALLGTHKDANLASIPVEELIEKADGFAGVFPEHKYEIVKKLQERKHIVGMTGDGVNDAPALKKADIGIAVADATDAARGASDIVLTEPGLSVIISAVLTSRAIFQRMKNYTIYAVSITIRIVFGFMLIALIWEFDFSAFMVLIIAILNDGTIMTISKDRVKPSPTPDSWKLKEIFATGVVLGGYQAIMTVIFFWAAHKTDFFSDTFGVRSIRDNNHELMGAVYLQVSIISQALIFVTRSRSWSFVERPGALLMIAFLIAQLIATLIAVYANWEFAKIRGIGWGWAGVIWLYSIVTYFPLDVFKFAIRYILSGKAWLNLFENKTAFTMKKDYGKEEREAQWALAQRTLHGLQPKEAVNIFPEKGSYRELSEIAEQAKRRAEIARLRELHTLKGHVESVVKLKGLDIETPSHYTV
# Excerpt: (§1) The S. cerevisiae strain RS-72 (MATa ade1-100 his4-519 leu2-3, 112) was transformed according to the lithium acetate/single-stranded carrier DNA/polyethylene glycol method, and cultured essentially as described previously. In RS-72, the promoter of the endogenous yeast PM H^+-ATPase PMA1 gene was replaced by the galactose-dependent GAL1 promoter. This strain grew in media containing galactose, whereas growth in glucose-based medium requires the complementation of the yeast PM H^+-ATPase with a functional PM H^+-ATPase expressed from a plasmid. A 2-micron yeast expression vector was used for expression of different versions of the Arabidopsis thaliana PM H^+-ATPase AHA2 (pMP 1625); a 92-amino acid C-terminal truncated mutation, aha2∆92 (pMP 132); or the wild-type S. cerevisiae PM H^+-ATPase PMA1 (pMP 400) placed under the control of the PMA1 promoter. The use of RS-72 allows for purification of microsomes with a very low endogenous ATPase activity compared to RS-72 transformed with an H^+-ATPase carrying plasmid.
# (§2) Yeast expressing AHA2 and Pma1p PM H^+-ATPase, respectively, were grown and harvested essentially as described. The cells were grown with glucose as carbon source in order to ensure than no endogenous plasma membrane H^+-ATPase is expressed. Microsomes and plasma membranes were isolated with all manipulations performed at 4°C. The final pellets containing the isolated membranes were collected and homogenized in GTED20 buffer (20% [v/v] glycerol, 10 mM Tris-HCl pH 7.5, 1 mM EDTA pH 8.0, 1 mM DTT) and stored at—80°C.
# (§3) ATPase activity was determined by the Baginski assay as described previously using 2–5 μg of PM protein. The assays were performed at 30°C in 300 μL volumes with 3 mM ATP, pH 6.5, for determination of AHA2 activity, or with 5 mM ATP, pH 5.9 for Pma1p activity. The assay medium 20 mM MOPS, 50 mM KNO3 (to inhibit vacuolar ATPase), 5 mM NaN3 (to inhibit mitochondrial ATPase), 3.5 mM Na2MoO4 (to inhibit acid phosphatase), 1 mM Mg^2+ free in solution, and the indicated concentrations of MgATP. IC50 values for compound inhibition were determined by pre incubating PM with different concentrations of compound for 30 min at room temperature. For kinetics studies, the concentration of ATP was varied between 0.125 and 8 mM using an ATP regenerating system (5 mM phosphoenolpyruvate and 50 μg/mL pyruvate kinase).
# (§4) The kinetic of inhibition for DMCM was determined by monitoring the rate of ATP hydrolysis reaction in the presence of increasing ATP substrate concentration. All kinetic data were gathered from experiments performed in the cuvette-based assay, as described above. The data were used in Hanes-Woolf analysis followed by fitting to the appropriate Michaelis-Menten inhibition equation (competitive, noncompetitive, uncompetitive, or mix type inhibition). The kinetic parameters Vmax, Km, Ki were estimated by nonlinear regression using GraphPad Prism 5.0 (GraphPad Software Inc.). For evaluation of inhibitor potency, IC50 values were calculated by using the equation: A=100/1+10^(LogIC50−LogC)×H where A is the observed % ATPase activity in the presence of compound; C, the compound concentration; IC50, the concentration that caused 50% inhibition of the maximal compound effect; and H, the slope factor.
# [2] = design: method as in doi:10.1016/S0260-8774(02)00264-9; conditions: cited from earlier work
# [3] = tested on: S. cerevisiae RS-72 expressing Pma1p; test: Drop test, yeast RS-72 expressing Pma1p; assay type: cell-based; conditions: Saccharomyces cerevisiae, 72 h; no visible growth after 3 days at 30°C
# Excerpt: as §1
# (§5) Transformed yeast cells, cultured on synthetic galactose (SG) agar medium supplemented with adenine 40 μg/mL and L-histidine 20 μg/mL (SGAH plates) for 3 days at 30°C, were suspended in H2O to 1x solution (OD660 = 1). Serial dilutions of 0.1, 0.01, 0.001 x of the cells were then prepared and spotted adjacently onto synthetic minimal media plates containing either 2% galactose or 2% glucose at pH 5.5 (SGAH or SDAH), incorporated with different concentrations of tested compound. Growth results were recorded after incubation for 3 days at 30°C. Minimum inhibitory concentrations (MIC values) were determined as the lowest concentrations of compounds where no visible growth of cells was observed.
# [4] = target: T2, yeast plasma membrane H+-ATPase Pma1p (Saccharomyces cerevisiae, UniProt P05030); test: ATP hydrolysis (Baginski) assay on Pma1p in yeast plasma membranes; assay type: biochemical, S. cerevisiae; conditions: for effect on Pma1p ATPase activity: 50 μM compound; for slope factor H of inhibition curve, Pma1p: variable slope fit
# T2 construct: made in house; host or cells: S. cerevisiae strain RS-72 (chromosomal PMA1 under GAL1 promoter, repressed on glucose), plasma membranes isolated
# T2 sequence (P05030 whole entry): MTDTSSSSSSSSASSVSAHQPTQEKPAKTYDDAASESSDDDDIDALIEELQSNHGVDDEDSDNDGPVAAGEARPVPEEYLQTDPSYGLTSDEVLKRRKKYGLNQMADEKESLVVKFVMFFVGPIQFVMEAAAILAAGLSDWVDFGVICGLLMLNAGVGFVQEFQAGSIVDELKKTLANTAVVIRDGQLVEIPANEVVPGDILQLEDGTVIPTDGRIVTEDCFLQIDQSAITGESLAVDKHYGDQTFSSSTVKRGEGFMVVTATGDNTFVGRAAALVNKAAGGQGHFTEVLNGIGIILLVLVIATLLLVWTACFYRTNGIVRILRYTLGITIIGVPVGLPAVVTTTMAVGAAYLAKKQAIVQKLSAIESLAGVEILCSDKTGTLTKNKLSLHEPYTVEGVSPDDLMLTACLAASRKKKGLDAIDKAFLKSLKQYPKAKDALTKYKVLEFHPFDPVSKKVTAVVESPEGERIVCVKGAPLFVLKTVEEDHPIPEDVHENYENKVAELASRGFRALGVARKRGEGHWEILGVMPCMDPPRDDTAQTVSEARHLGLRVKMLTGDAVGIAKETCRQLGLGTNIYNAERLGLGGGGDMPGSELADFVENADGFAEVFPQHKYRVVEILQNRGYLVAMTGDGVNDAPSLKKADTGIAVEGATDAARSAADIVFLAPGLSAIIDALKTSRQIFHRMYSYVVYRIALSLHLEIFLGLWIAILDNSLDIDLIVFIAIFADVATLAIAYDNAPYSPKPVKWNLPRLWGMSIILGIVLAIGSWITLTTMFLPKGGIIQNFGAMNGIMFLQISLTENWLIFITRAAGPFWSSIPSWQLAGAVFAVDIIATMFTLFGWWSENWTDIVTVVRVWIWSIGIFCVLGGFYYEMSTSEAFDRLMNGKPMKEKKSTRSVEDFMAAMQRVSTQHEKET
# Excerpt: as §1, §2, §3, §4
# [5] = tested on: S. cerevisiae RS-72 expressing AHA2; test: Drop test, yeast RS-72 expressing AHA2; assay type: cell-based; conditions: Saccharomyces cerevisiae, 72 h; no visible growth after 3 days at 30°C
# Excerpt: as §1, §5
# SERCA1a (Ca2+-ATPase) = SERCA1a (Ca2+-ATPase) (Oryctolagus cuniculus, UniProt P04191); test: SERCA ATP hydrolysis, NADH-coupled spectrophotometric assay; assay type: biochemical, rabbit; conditions: purified leaky SERCA preparation
# SERCA1a (Ca2+-ATPase), sequence (P04191 1-994 isoform P04191-2): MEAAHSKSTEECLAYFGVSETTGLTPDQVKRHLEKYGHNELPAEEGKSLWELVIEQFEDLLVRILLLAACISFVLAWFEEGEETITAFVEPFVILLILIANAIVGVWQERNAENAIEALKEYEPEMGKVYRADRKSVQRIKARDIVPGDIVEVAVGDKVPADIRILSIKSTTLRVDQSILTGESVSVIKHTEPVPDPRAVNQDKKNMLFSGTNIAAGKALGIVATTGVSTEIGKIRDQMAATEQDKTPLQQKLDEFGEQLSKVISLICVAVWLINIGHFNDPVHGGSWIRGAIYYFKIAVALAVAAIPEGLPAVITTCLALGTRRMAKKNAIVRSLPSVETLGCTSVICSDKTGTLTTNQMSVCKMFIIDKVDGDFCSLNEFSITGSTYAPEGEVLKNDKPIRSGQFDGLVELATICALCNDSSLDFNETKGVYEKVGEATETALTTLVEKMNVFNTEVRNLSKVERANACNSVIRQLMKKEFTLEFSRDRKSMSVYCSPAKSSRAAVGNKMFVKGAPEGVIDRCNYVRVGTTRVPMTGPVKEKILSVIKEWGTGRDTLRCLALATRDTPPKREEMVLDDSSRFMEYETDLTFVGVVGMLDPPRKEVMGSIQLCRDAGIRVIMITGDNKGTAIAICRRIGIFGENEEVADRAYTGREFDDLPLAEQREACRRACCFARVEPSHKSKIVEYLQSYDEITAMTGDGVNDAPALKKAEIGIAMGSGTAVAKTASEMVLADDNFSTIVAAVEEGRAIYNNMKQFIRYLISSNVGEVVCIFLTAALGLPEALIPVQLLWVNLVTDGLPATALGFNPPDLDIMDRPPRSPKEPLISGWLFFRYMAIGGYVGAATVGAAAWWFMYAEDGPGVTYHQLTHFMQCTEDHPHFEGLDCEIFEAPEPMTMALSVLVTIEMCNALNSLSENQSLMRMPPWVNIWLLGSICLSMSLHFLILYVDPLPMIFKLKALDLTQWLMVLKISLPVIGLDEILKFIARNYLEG
# Excerpt: Sarcoplasmic reticulum vesicles, prepared from the leg and back muscles of rabbits, were used to obtain purified SERCA1a by extraction with a low concentration of deoxycholate according to established methods. The resulting membrane fragments were used for enzymatic assays to test the effect of the curcuminoid compounds on ATP hydrolysis spectrophotometrically by NADH oxidation with an ATP regenerating system.
# [6] = tested on: S. cerevisiae strain RS-72; test: Drop test, yeast growth, all tested RS-72 strains; assay type: cell-based; conditions: Saccharomyces cerevisiae, RS72, 72 h, read-out: Minimum inhibitory concentration (MIC), yeast growth
# Excerpt: as §1, §5
# [7] = tested on: PM H+-ATPase in spinach plasma membrane vesicles; test: Proton pumping assay (ACMA fluorescence quenching) in spinach plasma membrane vesicles; assay type: biochemical, Spinacia oleracea; conditions: 5–20 μM
# Description: Baby spinach (Spinacia oleracea) leaves (50 g) were cut into small pieces and homogenized. Subsequently plasma membranes were isolated by two-phase partitioning according to [58]. Plasma membranes were collected and homogenized in the phase buffer containing 330 mM sucrose, 5 mM potassium phosphate pH 7.8, 2 mM KCl, 0.1 mM EDTA, and 1 mM DTT and stored at—80°C.
# Inside-out vesicles were created from spinach plasma membranes by adding the detergent Brij-58 to the buffer. Proton transport into the vesicles was determined as described by monitoring fluorescence quenching (excitation at 412 nm, emission at 480 nm) of 9-amino-6-chloro-2-methoxyacridine (ACMA). The reaction medium contained 20 mM MOPS-KOH, pH 7.0, 40 mM K2SO4, 25 mM KNO3, 2 mM ATP, 1 μM ACMA, 60 nM valinomycin and 0.05% (w/v) Brij-58. Proton pumping reactions were started by the addition of MgSO4 to a final concentration of 2 mM, and the proton gradient was collapsed by the addition of 10 μM nigericin.
# [8] = design: method as in PMID 17999464; conditions: due to fast metabolism; cited from earlier work
# [9] = 3 mM ATP, pH 6.5, 30°C, 30 min preincubation, read-out: IC50, ATP hydrolysis, AHA2
smiles,measurement,setting,value
"COc1cc(/C=C/C(=O)/C=C(O)/C=C/c2ccc(O)cc2)ccc1O [DMCM (2), demethoxycurcumin]",AHA2 Vmax,[1]; 10 μM demethoxycurcumin,0.46 ± 0.02 µM/mg/min
same,AHA2 Vmax,[1]; 20 μM demethoxycurcumin,0.35 ± 0.01 µM/mg/min
same,AHA2 Vmax,[1]; 30 μM demethoxycurcumin,0.19 ± 0.01 µM/mg/min
same,AHA2 Vmax,[1]; 40 μM demethoxycurcumin,0.11 ± 0.01 µM/mg/min
same,effect on AHA2 ATPase activity,[1],significantly inhibited
same,IC50,[1]; [9],18.7 ± 1 µM
same,fold lower IC50 value in comparison to CM or BDCM,[1]; AHA2 and Pma1p ATP hydrolysis,2- to 4 fold
same,"mode of inhibition versus ATP, AHA2","[1]; DMCM 0-40 μM, ATP 0.125–8 mM",noncompetitive inhibitor
same,Ki,"[1]; in vitro, noncompetitive model, ATP 0.125-8 mM",14.7 ± 0.7 µM
same,"slope factor H of inhibition curve, AHA2",[1],2.4
same,chemical stability compared with CM,[2],more stable
same,MIC,[3],40 to 50 µM
same,IC50,[4],28.9 ± 1 µM
same,Ki,[4],27.7 ± 1.2 µM
same,Pma1p Vmax,[4]; 10 μM demethoxycurcumin,1.00 ± 0.13 µM/mg/min
same,Pma1p Vmax,[4]; 20 μM demethoxycurcumin,0.63 ± 0.05 µM/mg/min
same,Pma1p Vmax,[4]; 30 μM demethoxycurcumin,0.48 ± 0.04 µM/mg/min
same,Pma1p Vmax,[4]; 40 μM demethoxycurcumin,0.39 ± 0.04 µM/mg/min
same,effect on Pma1p ATPase activity,[4],significantly inhibited
same,"mode of inhibition versus ATP, Pma1p","[4]; DMCM 0-40 μM, ATP 0.125–8 mM",noncompetitive inhibitor
same,"slope factor H of inhibition curve, Pma1p",[4],1.5
same,MIC,[5],20 to 30 µM
same,IC50,SERCA1a (Ca2+-ATPase),2.6 ± 0.9 µM
same,MIC,[6],~30 µM
same,effect on H+ pumping activity,[7],dramatically reversed
"O=C(/C=C(O)/C=C/c1ccc(O)cc1)/C=C/c1ccc(O)cc1 [BDCM (3), bisdemethoxycurcumin]",IC50,[1],76.7 ± 1.1 µM
same,effect on AHA2 ATPase activity,[1],significantly inhibited
same,"slope factor H of inhibition curve, AHA2",[1],~1
same,MIC,[3],210 to 220 µM
same,effect on Pma1p ATPase activity,[4],significantly inhibited
same,IC50,"[4]; 5 mM ATP, pH 5.9, 30°C, 30 min preincubation, read-out: IC50, ATP hydrolysis, Pma1p",90.6 ± 1.1 µM
same,"slope factor H of inhibition curve, Pma1p",[4],~1
same,MIC,[5],200 to 210 µM
same,MIC,"[6]; approximate values, 3 days at 30°C",~200 µM
"COc1cc(/C=C/C(=O)/C=C(O)/C=C/c2ccc(O)c(OC)c2)ccc1O [CM (1), Curcumin]",effect on AHA2 ATPase activity,[1],significantly inhibited
same,IC50,[1]; [9],60.4 ± 1.1 µM
same,"slope factor H of inhibition curve, AHA2",[1],~1
same,MIC,[3],60 to 70 µM
same,bioavailability,[8],poor bioavailability
same,IC50,[4],76.1 ± 1 µM
same,effect on Pma1p ATPase activity,[4],significantly inhibited
same,"slope factor H of inhibition curve, Pma1p",[4],~1
same,MIC,[5],40 to 50 µM
same,IC50,SERCA1a (Ca2+-ATPase),3.9 ± 0.4 µM
same,MIC,[6],~50 µM
